Data: patent publication US20090105172A1, “Stabilized Aptamers to PSMA and Their Use as Prostate Cancer Therapeutics” (priority 2005, published 2009)

System: LNCaP cells (PSMA+)
Test: LNCaP FACS binding assay with fluorescein-labeled aptamers
Format: cell-based
Conditions: relative to parent A9
Protocol: To prepare aptamers for the FACS assay, PSMA aptamers were serially diluted (0-1 uM) in FACS buffer (1×DPBS w/Ca^++/Mg^++ (Gibco, Carlsbad, Calif.) supplemented with 10 mg/mL salmon sperm DNA & 0.2% Na Azide), in a V-bottom 96 well plate, at the concentrations to be tested. LNCaP and PC-3 cells (ATCC, Manassas, Va.) were harvested with trypsin, and 200,000 cells/well were counted, washed once with 1×DPBS (with Ca^++ and Mg^+) and resuspended in 200 μl of FACS Buffer. The 200 μl of cells in FACS buffer were added to individual wells of a new 96 well plate, pelleted by centrifugation (1300 rpm for 5 minutes), and resuspended in 100 μl of the appropriate concentration of diluted aptamer. FACS buffer, a-PSMA antibody (3C6) (Northwest Biotherapeutics, Bothell, Wash., Cat #: 60-5002) and an irrelevant fluorescein isothiocyanate (“FITC”) mouse IgG1 isotype control antibody (BD Pharmingen, San Diego, Calif., Cat#: 554679) were used as controls. The wells of aptamer/cell mixture were incubated at room temperature for 20-30 minutes.
After incubation, 180 μl of FACS buffer (plus 10 mg/mL ssDNA, and 0.2% Na Azide) was added to each well to quench the reaction and cells were pelleted by centrifugation.
Anti-fluorescein/Oregon Green®, rabbit IgG fraction, Alexa Fluor® 488 conjugate (Molecular Probes, Eugene, Oreg., Cat#: A11090) was diluted 1:100 in FACS buffer (100 μl/well) as the secondary antibody for the aptamer-FITC conjugates and FITC-mouse IgG isotype control. FITC Rat anti-mouse IgG1 (A85-1) (BD Pharmingen, San Diego, Calif., Cat#: 553443) was diluted in 1:100 in FACS Buffer as the secondary for the α-PSMA antibody. After centrifugation, the cell pellets were resuspended in 100 μl of the appropriate diluted secondary antibody, and incubated 10 minutes at room temperature. After incubation, 180 μl of FACS buffer was added to each well to quench the reaction, and cells were pelleted by centrifugation.
A tertiary antibody which recognizes the Alexa Fluor® 488 goat anti-rabbit IgG was prepared to further amplify the Alexa Fluor signal. Alexa Fluor® 488 goat anti-rabbit IgG (H+ L) (Molecular Probes, Eugene, Oreg., Cat#: A11034) was diluted 1:100 in FACS buffer, and the pelleted cells were resupsended in 100 μl of the tertiary antibody and incubated for 10 minutes at room temperature. […]
Cell samples were analyzed on a FACS Scan machine (Becton Dickinson, San Jose, Calif.) under the following parameters: FSC/SSC, FL-1/FSC, FL-3/FSC. The unstained and/or isotype controls were used to establish gating parameters, and the data was analyzed using Cell Quest Pro software version 5.1.1 (Becton Dickinson Immunocytometry Systems, San Jose, Calif.).

GGAGGAfCfCGAAAAAGAfCfCfUGAfCfUfUfCfUAfUAfCfUAAGfUfCfUAfCGfUfUfCfCfUfCfCA (GGAGGACCGAAAAAGACCUGACUUCUAUACUAAGUCUACGUUCCUCCA; 2'-fluoro at 7, 8, 17, 18, 19, 22, 23, 24, 25, 26, 28, 30, 31, 35, 36, 37, 39, 41, 42, 43, 44, 45, 46, 47, other sugars and backbone not given here) [ARC591, 48-nt minimer of A9]
functional activity in the LNCaP FACS assay: retained full functional activity
